Test results from BigSolDB 2.1.

CN(C)Cc1c[nH]c2ccccc12
solubility (mole fraction)
Details | 273.15 K | 278.15 K | 283.15 K | 288.15 K | 293.15 K | 298.15 K | 303.15 K | 308.15 K | 313.15 K
in 1,4-dioxane | – | – | – | 0.0465 | 0.0511 | 0.0562 | 0.0623 | 0.0684 | 0.0746
in acetone | 0.0231 | 0.026 | 0.0289 | 0.0327 | 0.0364 | 0.0402 | 0.0463 | 0.0523 | 0.0584
in acetonitrile | 0.00447 | 0.00517 | 0.00621 | 0.00736 | 0.00858 | 0.00998 | 0.0116 | 0.0133 | 0.0151
in ethanol | 0.0207 | 0.023 | 0.0254 | 0.0283 | 0.0317 | 0.0355 | 0.0399 | 0.0449 | 0.0508
in ethyl acetate | 0.0165 | 0.0193 | 0.0219 | 0.0253 | 0.029 | 0.0327 | 0.0377 | 0.0428 | 0.0479
in isopropanol | 0.013 | 0.0153 | 0.0178 | 0.0207 | 0.0235 | 0.0268 | 0.0305 | 0.0341 | 0.0377
in methanol | 0.0274 | 0.0293 | 0.0315 | 0.0341 | 0.0371 | 0.0417 | 0.0474 | 0.0537 | 0.0615
in n-butanol | 0.0305 | 0.0337 | 0.0369 | 0.0416 | 0.0464 | 0.0512 | 0.0565 | 0.0617 | 0.067
in n-octanol | 0.0111 | 0.0132 | 0.0158 | 0.0187 | 0.0218 | 0.025 | 0.0284 | 0.0319 | 0.036
in n-propanol | 0.0284 | 0.0315 | 0.0346 | 0.0381 | 0.0415 | 0.046 | 0.0515 | 0.0581 | 0.0629
in toluene | 0.00345 | 0.00408 | 0.00456 | 0.00537 | 0.00647 | 0.00765 | 0.00905 | 0.0107 | 0.0126
